These results are taken from publication PMC12444507 (ACS Omega, 2025).

One may read the EC50 as the concentration at which the effect is half-maximal.

The test system of data set [1] is SARS-CoV-2 strain JPN/TY/WK-521 (SARS-CoV-2^WK-521, ancestral Wuhan strain). The note with it: cited from earlier work.
Data set [2] shares this test system. Type of data set: cell-based.
Data set [3] deals with SARS-CoV-2^WK-521 infected VeroE6 cells.

For the compound `CC(C)(C)[C@H](NC(=O)C(F)(F)F)C(=O)N1C[C@H]2[C@@H]([C@H]1C(=O)N[C@H](C#N)C[C@@H]1CCNC1=O)C2(C)C` [nirmatrelvir (1), nirmatrelvir], the EC50 in data set [1] was 770 ± 180 nM. For the compound `CC(C)(C)[C@H](NC(=O)C(F)(F)F)C(=O)N1C[C@H]2[C@@H]([C@H]1C(=O)N[C@@H](C[C@@H]1CCNC1=O)C(=O)c1nc3c(Br)c(F)ccc3s1)C2(C)C` [Compound 15], the “lower potency than TKB272 (8)” value in data set [2] was “approximately 3 fold”. On to `CC(C)(C)[C@H](NC(=O)C(F)(F)F)C(=O)N1C[C@H]2[C@@H]([C@H]1C(=O)N[C@@H](C[C@@H]1CCNC1=O)C(=O)c1nc3cc(F)ccc3s1)C2(C)C` [TKB272 (8)], for which the “cytotoxicity in immunostaining experiments” value in data set [3] is on record as “no significant cytotoxicity”. In addition, the revertant mutagenicity entry with bacterial mutation was “no revertant mutagenicity”.
